Ten compounds from patent US9290467B2, “Cyclic amides” (Hoffmann-La Roche Inc., priority 2012, dated 2016) can be followed below.

This test addresses Cathepsin L (Homo sapiens (Human), UniProt P07711). Put plainly: Cathepsin enzyme inhibition assay (fluorogenic peptide substrate Z-Val-Val-Arg-AMC). Type of test: biochemical. The settings on record: enzyme 1 nM, substrate 20 μM, pH 6.5. Here is the method:
Enzyme activity is measured by observing the increase in fluorescence intensity caused by cleavage of a peptide substrate containing a fluorophore whose emission is quenched in the intact peptide.
Assay buffer: 100 mM potassium phosphate pH 6.5, EDTA-Na 5 mM, Triton X-100 0.001%, DDT 5 mM.
Enzymes (all at 1 nM): human and mouse Cathepsin S, Cat K, Cat B, Cat L
Substrate (20 μM): Z-Val-Val-Arg-AMC, except for Cat K which uses Z-Leu-Arg-AMC (both from Bachem).
AMC=7-Amino-4-Methyl-Coumarin.
Excitation 360 nm, Emission 465 nm.
Enzyme is added to the substance dilutions in 96-well microtitre plates and the reaction is started with substrate. […] IC50 are calculated by standard methods. The results are expressed in μM in the following table.

Sequence of Cathepsin L (P07711 114-333): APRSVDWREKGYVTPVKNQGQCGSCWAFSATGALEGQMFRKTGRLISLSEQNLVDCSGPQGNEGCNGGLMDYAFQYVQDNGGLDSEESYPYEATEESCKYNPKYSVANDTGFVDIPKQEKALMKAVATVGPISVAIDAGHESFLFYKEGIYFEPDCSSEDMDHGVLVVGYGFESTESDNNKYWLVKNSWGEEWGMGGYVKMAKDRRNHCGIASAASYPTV

`N#CC1(NC(=O)[C@@H]2Cc3ccc(c(Cl)c3)OC/C=C/CNc3ccccc3C(=O)N2)CC1` [Example 21, (E)-(S)-19-Chloro-5-oxo-17-oxa-4,12-diaza-tricyclo[16.2.2.0*6,11*]docosa-1(21),6,8,10,14,18(22),19-heptaene-3-carboxylic acid (1-cyano-cyclopropyl)-amide]: the IC50 – broadly, the point on the concentration scale where inhibition reaches its midpoint – was 0.054 µM.

`N#CC1(NC(=O)[C@@H]2Cc3ccc(c(I)c3)OC/C=C/COc3ccccc3C(=O)N2)CC1` [Example 25, (E)-(S)-19-Iodo-5-oxo-12,17-dioxa-4-aza-tricyclo[16.2.2.0*6,11*]docosa-1(21),6,8,10,14,18(22),19-heptaene-3-carboxylic acid (1-cyano-cyclopropyl)-amide, stereoaxis R] gave an IC50 of 0.236 µM.

`N#CC1(NC(=O)[C@@H]2Cc3ccc(c(Cl)c3)OC/C=C/CCN3CC(F)(F)CC3C(=O)N2)CC1` (mixture of isomers) [Example 14, (E)-(S)-18-Chloro-8,8-difluoro-5-oxo-16-oxa-4,10-diaza-tricyclo[15.2.2.0*6,10*]henicosa-1(20),13,17(21),18-tetraene-3-carboxylic acid (1-cyano-cyclopropyl)-amide] had an IC50 of 6.06 µM.

Regarding `N#CC1(NC(=O)[C@@H]2Cc3ccc(c(Cl)c3)OC/C=C\COc3ccc(F)c(F)c3C(=O)N2)CC1` [Example 46, (Z)—(S)-19-Chloro-7,8-difluoro-5-oxo-12,17-dioxa-4-aza-tricyclo[16.2.2.0*6,11*]docosa-1(21),6,8,10,14,18(22),19-heptaene-3-carboxylic acid (1-cyano-cyclopropyl)-amide], the IC50 amounted to 0.054 µM.

`N#CC1(NC(=O)[C@@H]2Cc3ccc(c(Cl)c3)OC/C=C/COc3ccc(C4CNC4)cc3C(=O)N2)CC1` [Example 41, (E)-(S)-8-Azetidin-3-yl-19-chloro-5-oxo-12,17-dioxa-4-aza-tricyclo[16.2.2.0*6,11*]docosa-1(21),6,8,10,14,18(22),19-heptaene-3-carboxylic acid (1-cyano-cyclopropyl)-amide] showed an IC50 of 0.0052 µM.

`N#CC1(NC(=O)[C@@H]2Cc3ccc(c(I)c3)OCCCCOc3ccc(Cl)cc3C(=O)N2)CC1` [Example 31, (S)-8-Chloro-19-iodo-5-oxo-12,17-dioxa-4-aza-tricyclo[16.2.2.0*6,11*]docosa-1(21),6(11),7,9,18(22),19-hexaene-3-carboxylic acid (1-cyano-cyclopropyl)-amide]: the IC50 amounted to 0.012 µM.

For `N#CC1(NC(=O)[C@@H]2Cc3ccc(c(Cl)c3)OC/C=C/CCN3CCCC3C(=O)N2)CC1` (mixture of isomers) [Example 12, (E)-(S)-18-Chloro-5-oxo-16-oxa-4,10-diaza-tricyclo[15.2.2.0*6,10*]henicosa-1(20),13,17(21),18-tetraene-3-carboxylic acid (1-cyano-cyclopropyl)-amide], 0.878 µM corresponded to half-maximal inhibition (IC50). This IC50 lies about 73-fold higher than the previous one.

On to `N#CC1(NC(=O)[C@@H]2Cc3ccc(c(I)c3)OC/C=C/COc3ccccc3C(=O)N2)CC1` [Example 26, (E)-(S)-19-Iodo-5-oxo-12,17-dioxa-4-aza-tricyclo[16.2.2.0*6,11*]docosa-1(21),6,8,10,14,18(22),19-heptaene-3-carboxylic acid (1-cyano-cyclopropyl)-amide, stereoaxis S], for which half-maximal inhibition (IC50) required 0.139 µM.

`N#CC1(NC(=O)[C@@H]2Cc3ccc(c(Cl)c3)OC/C=C/COc3cccc(c3)C(=O)N2)CC1` [Example 6, (E)-(S)-18-Chloro-5-oxo-11,16-dioxa-4-aza-tricyclo[15.2.2.1*6,10*]docosa-1(20),6,8,10(22),13,17(21),18-heptaene-3-carboxylic acid (1-cyano-cyclopropyl)-amide] registered an IC50 of 0.032 µM.

The compound `N#CC1(NC(=O)[C@@H]2Cc3ccc(c(Cl)c3)OC/C=C/CCc3ccccc3C(=O)N2)CC1` [Example 5, (E)-(S)-19-Chloro-5-oxo-17-oxa-4-aza-tricyclo[16.2.2.0*6,11*]docosa-1(21),6,8,10,14,18(22),19-heptaene-3-carboxylic acid (1-cyano-cyclopropyl)-amide] had an IC50 of 0.0096 µM. Compared with the last compound, the IC50 is about 3.3-fold lower.
